ChEMBL document CHEMBL4433228, “Identification and immunological evaluation of novel TLR2 agonists through structure optimization of Pam3CSK4” (Bioorg Med Chem, 2019)
Calls of active or inactive are those of the source. Residues, ends and D or L forms follow the SMILES beside them. *: point of attachment. Propyl(2R-PamO,3-PamO) = CCCCCCCCCCCCCCCC(=O)OC[C@H](C*)OC(=O)CCCCCCCCCCCCCCC; Palmitoyl = CCCCCCCCCCCCCCCC(=O)*

Tests used:
[1] = target: Toll-like receptor 2 (Mus musculus) (UniProt Q9QUN7); experiment: Agonist activity at TLR2 in mouse BV2 cells assessed as increase in IL-6 secretion at 2 uM incubated for 24 hrs by ELISA; assay type: cell-based
Sequence of Toll-like receptor 2 (Mus musculus) (Q9QUN7 whole entry): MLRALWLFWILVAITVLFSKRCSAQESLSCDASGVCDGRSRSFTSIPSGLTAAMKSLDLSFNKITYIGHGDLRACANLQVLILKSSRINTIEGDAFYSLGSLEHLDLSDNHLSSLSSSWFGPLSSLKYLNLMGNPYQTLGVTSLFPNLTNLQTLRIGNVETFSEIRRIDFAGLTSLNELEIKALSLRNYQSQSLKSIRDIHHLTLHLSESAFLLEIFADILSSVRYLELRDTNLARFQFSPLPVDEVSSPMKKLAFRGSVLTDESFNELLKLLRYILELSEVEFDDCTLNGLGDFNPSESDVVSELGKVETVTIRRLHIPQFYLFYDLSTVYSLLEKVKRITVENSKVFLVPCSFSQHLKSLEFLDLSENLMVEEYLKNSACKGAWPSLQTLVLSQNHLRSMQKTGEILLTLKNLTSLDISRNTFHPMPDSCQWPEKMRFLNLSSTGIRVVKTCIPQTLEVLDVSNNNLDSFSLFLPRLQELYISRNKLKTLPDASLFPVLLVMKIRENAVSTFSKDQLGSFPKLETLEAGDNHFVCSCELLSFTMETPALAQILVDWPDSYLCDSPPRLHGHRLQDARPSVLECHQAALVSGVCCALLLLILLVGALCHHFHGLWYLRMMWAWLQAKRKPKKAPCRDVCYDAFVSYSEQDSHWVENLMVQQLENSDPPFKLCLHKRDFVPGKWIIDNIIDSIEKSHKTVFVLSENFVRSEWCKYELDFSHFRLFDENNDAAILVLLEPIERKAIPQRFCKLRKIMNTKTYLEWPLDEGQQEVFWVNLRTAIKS

[2] = target: Toll-like receptor 1/2 (Mus musculus) (UniProt Q9QUN7+Q9EPQ1); experiment: Agonist activity at TLR2/1 in mouse BV2 cells assessed as induction of IL-6 production at 2 uM incubated for 24 hrs in presence of TLR2/1 inhibitor CU-CPT22 by ELISA; assay type: cell-based
BMDM [3] = experiment: Effect on IL-6 production in TLR2-/- mouse BMDM cells at 0.1 to 1 uM incubated for 24 hrs by ELISA; assay type: functional, cell-based
TLR2/TLR6 (Homo sapiens) [4] = target: T1, TLR2/TLR6 (Homo sapiens) (UniProt O60603+Q9Y2C9); experiment: Agonist activity at TLR2/6 in PMA-differentiated human THP-1 cells assessed as induction of IL-6 production at 2.5 uM incubated for 24 hrs after preincubation with […] for 2 hrs by ELISA; assay type: cell-based
[5] = (§1) Effect on IL-6 mRNA expression in TLR2-/- mouse BMDM cells at 0.1 to 1 uM by qRT-PCR analysis; assay type: ADME, cell-based
[6] = as §1; assay type: ADME, cell-based; remark: listed apart in the source
BV-2 [7] = experiment: Effect on IkappaBalpha protein expression in mouse BV2 cells at 0.2 to 2 uM incubated for 12 hrs by Western blot analysis; assay type: ADME, cell-based; settings: bv-2, 12 h
[8] = target: Toll-like receptor 1/2 (Homo sapiens) (UniProt O60603+Q15399); experiment: Agonist activity at TLR2/1 in PMA-differentiated human THP-1 cells assessed as induction of IL-6 production at 2.5 uM incubated for 24 hrs after preincubation with anti-hTLR2-IGA for 2 hrs by ELISA; assay type: cell-based
THP-1 [9] = experiment: Agonist activity at TLR2/1 in PMA-differentiated human THP-1 cells assessed as induction of IL-6 production at 2.5 uM incubated for 24 hrs after preincubation with anti-hTLR1-IGG for 2 hrs by ELISA; assay type: cell-based
BMDM [10] = experiment: Effect on TNFalpha production in TLR2-/- mouse BMDM cells at 0.1 to 1 uM incubated for 24 hrs by ELISA; assay type: functional, cell-based
[11] = target: Toll-like receptor 2 (Mus musculus) (UniProt Q9QUN7); experiment: Activation of TLR2 in wild type mouse BMDM cells assessed as stimulation of IL-6 production at 0.1 to 1 uM incubated for 24 hrs by ELISA; assay type: cell-based
[12] = target: Toll-like receptor 2 (Mus musculus) (UniProt Q9QUN7); experiment: Agonist activity at TLR2 in mouse dendritic cells assessed as upregulation CD80 expression at 100 ng/ml by flow cytometry; assay type: cell-based
[13] = target: Toll-like receptor 2 (Mus musculus) (UniProt Q9QUN7); experiment: Activation of TLR2 in wild type mouse BMDM cells assessed as stimulation of TNFalpha production at 0.1 to 1 uM incubated for 24 hrs by ELISA; assay type: cell-based
TLR2/TLR6 (Homo sapiens) [14] = target: T1, TLR2/TLR6 (Homo sapiens); experiment: Agonist activity at TLR2/6 in PMA-differentiated human THP-1 cells assessed as induction of IL-6 production at 2.5 uM incubated for 24 hrs after preincubation with anti-hTLR6-IGG for 2 hrs by ELISA; assay type: cell-based
[15] = target: Toll-like receptor 2 (Mus musculus) (UniProt Q9QUN7); experiment: Agonist activity at TLR2 in wild type mouse BMDM cells assessed as induction of NFkappaB pathway activation by measuring increase in IL-6 mRNA expression by qRT-PCR analysis; assay type: cell-based
[16] = target: Toll-like receptor 2 (Mus musculus) (UniProt Q9QUN7); experiment: Activation of TLR2 in wild type mouse BMDM cells assessed as stimulation of IL-12 production at 0.1 to 1 uM incubated for 24 hrs by ELISA; assay type: cell-based
[17] = target: Toll-like receptor 2 (Mus musculus) (UniProt Q9QUN7); experiment: Agonist activity at TLR2 in mouse BV2 cells assessed as increase in IL-6 secretion at 1 uM incubated for 24 hrs in presence of NF-kappaB inhibitor triptolide by ELISA; assay type: cell-based
BMDM [18] = experiment: Effect on IL-12 production in TLR2-/- mouse BMDM cells at 0.1 to 1 uM incubated for 24 hrs by ELISA; assay type: functional, cell-based
[19] = target: Toll-like receptor 2 (Mus musculus) (UniProt Q9QUN7); experiment: Agonist activity at TLR2 in mouse dendritic cells assessed as upregulation MHC class 2 expression at 100 ng/ml by flow cytometry; assay type: cell-based
[20] = target: Toll-like receptor 2 (Mus musculus) (UniProt Q9QUN7); experiment: Agonist activity at TLR2 in mouse BV2 cells assessed as stimulation of NFkappaB pathway by measuring increase in IkappaBalpha phosphorylation incubated for 12 hrs by Western blot analysis; assay type: cell-based
[21] = target: Toll-like receptor 2 (Mus musculus) (UniProt Q9QUN7); experiment: Agonist activity at TLR2 in mouse dendritic cells assessed as upregulation CD86 expression at 100 ng/ml by flow cytometry; assay type: cell-based
[22] = target: Toll-like receptor 2 (Homo sapiens) (UniProt O60603); experiment: Agonist activity at human TLR2 in PMA-differentiated THP-1 cells assessed as induction of IL-6 production at 0.5 to 2.5 uM incubated for 24 hrs by ELISA; assay type: cell-based
Sequence of Toll-like receptor 2 (Homo sapiens) (O60603 whole entry): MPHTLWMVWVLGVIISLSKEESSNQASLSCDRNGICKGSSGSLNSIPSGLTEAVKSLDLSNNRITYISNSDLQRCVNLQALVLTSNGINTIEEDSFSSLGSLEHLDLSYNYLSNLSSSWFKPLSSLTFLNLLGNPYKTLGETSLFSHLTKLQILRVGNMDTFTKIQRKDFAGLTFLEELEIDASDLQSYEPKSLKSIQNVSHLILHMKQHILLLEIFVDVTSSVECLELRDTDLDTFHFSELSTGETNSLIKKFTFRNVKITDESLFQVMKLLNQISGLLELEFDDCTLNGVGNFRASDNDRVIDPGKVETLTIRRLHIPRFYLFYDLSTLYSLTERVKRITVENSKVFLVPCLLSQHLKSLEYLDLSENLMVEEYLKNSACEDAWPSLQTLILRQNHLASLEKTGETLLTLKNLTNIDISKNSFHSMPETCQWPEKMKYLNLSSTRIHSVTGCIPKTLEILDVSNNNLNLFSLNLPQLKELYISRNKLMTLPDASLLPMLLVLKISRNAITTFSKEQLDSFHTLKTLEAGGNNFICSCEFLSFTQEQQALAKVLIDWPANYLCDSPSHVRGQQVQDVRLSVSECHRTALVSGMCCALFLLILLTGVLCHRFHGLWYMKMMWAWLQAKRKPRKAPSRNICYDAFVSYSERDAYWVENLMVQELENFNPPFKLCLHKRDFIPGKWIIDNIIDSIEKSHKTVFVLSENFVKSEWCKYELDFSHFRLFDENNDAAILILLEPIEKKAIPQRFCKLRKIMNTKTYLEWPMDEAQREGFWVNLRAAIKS

[23] = target: Toll-like receptor 2 (Mus musculus) (UniProt Q9QUN7); experiment: Agonist activity at TLR2 in mouse RAW264.7 cells assessed as induction of IL-6 production incubated for 24 hrs by ELISA; assay type: cell-based
BV-2 [24] = experiment: Cytotoxicity against mouse BV2 cells assessed as cell viability up to 5 uM incubated for 24 hrs by CCK-8 assay; assay type: cell-based; settings: bv-2, 24 h
Toll-like receptor 2 = Toll-like receptor 2 (Mus musculus, UniProt Q9QUN7); experiment: Agonist activity at TLR2 in wild type mouse BMDM cells assessed as induction of NFkappaB pathway activation by measuring increase in TNF-alpha mRNA expression by qRT-PCR analysis; assay type: cell-based
Sequence of Toll-like receptor 2 (Q9QUN7 whole entry): as the sequence (Q9QUN7 whole entry) above

THP-1 [25] = experiment: Cytotoxicity against human THP1 cells assessed as cell viability up to 5 uM incubated for 24 hrs by CCK-8 assay; assay type: cell-based; settings: thp-1, 24 h
Dendritic cell [26] = experiment: Effect on CD80 expression in TLR2-/- mouse dendritic cells at 100 ng/ml by flow cytometry; assay type: ADME, cell-based
Dendritic cell [27] = experiment: Effect on CD86 expression in TLR2-/- mouse dendritic cells at 100 ng/ml by flow cytometry; assay type: ADME, cell-based
Dendritic cell [28] = experiment: Effect on MHC class 2 expression in TLR2-/- mouse dendritic cells at 100 ng/ml by flow cytometry; assay type: ADME, cell-based
[29] = Effect on TNFalpha mRNA expression in TLR2-/- mouse BMDM cells at 0.1 to 1 uM by qRT-PCR analysis; assay type: ADME, cell-based

CCCCCCCCCCCCCCCCOC(=O)NCCSC[C@H](NC(=O)NCCCCCCCCCCCCCC)C(=O)N[C@H](CO)C(=O)N[C@@H](CCCCN)C(=O)N[C@@H](CCCCN)C(=O)N[C@@H](CCCCN)C(=O)N[C@@H](CCCCN)C(=O)O
inactive: Activity [2] | Activity (BMDM [3]) | Activity (TLR2/TLR6 (Homo sapiens) [4])
active: Activity [1]

CCCCCCCCCCCCCCCC(=O)N[C@@H](CSCCNC(=O)OCCCCCCCCCCCCCC)C(=O)N[C@@H](CO)C(=O)N[C@@H](CCCCN)C(=O)N[C@@H](CCCCN)C(=O)N[C@@H](CCCCN)C(=O)N[C@@H](CCCCN)C(=O)O
Non-Toxic: Activity [5] | Activity [6]
Active: Activity (BV-2 [7])

CCCCCCCCCCCCCCCCOC(=O)NCCSC[C@H](NC(=O)CCCCCCCCCCCCCCC)C(=O)N[C@H](CO)C(=O)N[C@@H](CCCCN)C(=O)N[C@@H](CCCCN)C(=O)N[C@@H](CCCCN)C(=O)O
active: Activity [1] | Activity (BMDM [3]) | Activity [8]

CCCCCCCCCCCCCCCC(=O)N[C@@H](CSCCOC(=O)CCCCCCCCCCCCCCC)C(=O)N[C@H](CO)C(=O)N[C@@H](CCCCN)C(=O)N[C@@H](CCCCN)C(=O)N[C@@H](CCCCN)C(=O)N[C@@H](CCCCN)C(=O)O
inactive: Activity (THP-1 [9]) | Activity (BMDM [10]) | Activity [11] | Activity (TLR2/TLR6 (Homo sapiens) [14]) | Activity [17]
active: Activity [1] | Activity [12] Dose-dependent effect | Activity (BMDM [3]) Dose-dependent effect | Activity [8] | Activity [13] | Activity [15] Dose-dependent effect | Activity [16]

CCCCCCCCCCCCCCCC(=O)N[C@@H](CSC[C@@H](COC(=O)CCCCCCCCCCCCCCC)OC(=O)CCCCCCCCCCCCCCC)C(=O)N[C@@H](CO)C(=O)N[C@@H](CCCCN)C(=O)N[C@@H](CCCCN)C(=O)N[C@@H](CCCCN)C(=O)N[C@@H](CCCCN)C(=O)O (Palmitoyl-C(Propyl(2R-PamO,3-PamO))SKKKK-OH)
inactive: Activity (THP-1 [9]) | Activity (TLR2/TLR6 (Homo sapiens) [14])
Non-Toxic: Activity [5] | Activity [6]
active: Activity (BMDM [18]) | Activity [12] Dose-dependent effect | Activity [15] Dose-dependent effect

CCCCCCCCCCCCCCCCOC(=O)NCCSC[C@H](NC(=O)CCCCCCCCCCCCCCC)C(=O)N[C@H](CO)C(=O)N[C@@H](CCCCN)C(=O)N[C@@H](CCCCN)C(=O)N[C@@H](CCCCN)C(=O)N[C@@H](CCCCN)C(=O)O
active: Activity [1] | Activity [12] Dose-dependent effect | Activity [19] | Activity (BMDM [3]) | Activity [8] | Activity [13] | Activity [21] | Activity [22] | Activity [15] Dose-dependent effect | Activity [16] | Activity [23] Dose-dependent effect
inactive: Activity (THP-1 [9]) | Activity (BMDM [10]) | Activity [11] | Activity [20] | Activity (TLR2/TLR6 (Homo sapiens) [14]) | Activity [17]

CCCCCCCCCCCCCCCCOC(=O)NCCSC[C@H](NC(=O)CCCCCCCCCCCCCCC)C(=O)N[C@@H](CO)C(=O)N[C@@H](CCCCN)C(=O)N[C@@H](CCCCN)C(=O)N[C@@H](CCCCN)C(=O)N[C@@H](CCCCN)C(=O)O
Active: Activity (BV-2 [7]) | Activity (Dendritic cell [26])
83.1 nM: EC50 (Toll-like receptor 2)
Non-Toxic: Activity [5] | Activity (BV-2 [24]) | Activity (THP-1 [25]) | Activity [6] | Activity (Dendritic cell [27]) | Activity (Dendritic cell [28]) | Activity [29]

CCCCCCCCCCCCCCCCNC(=O)NCCSC[C@H](NC(=O)CCCCCCCCCCCCCCC)C(=O)N[C@H](CO)C(=O)N[C@@H](CCCCN)C(=O)N[C@@H](CCCCN)C(=O)N[C@@H](CCCCN)C(=O)N[C@@H](CCCCN)C(=O)O
inactive: Activity (BMDM [3]) | Activity [8]

CCCCCCCCCCCCCCCCOC(=O)NCCSC[C@H](NC(=O)NCCCCCCCCCCCCCC)C(=O)N[C@@H](CO)C(=O)N[C@@H](CCCCN)C(=O)N[C@@H](CCCCN)C(=O)N[C@@H](CCCCN)C(=O)N[C@@H](CCCCN)C(=O)O
Non-Toxic: Activity (BV-2 [24])

CCCCCCCCCCCCCCCC(=O)N[C@@H](CSCCOC(=O)CCCCCCCCCCCCCCC)C(=O)N[C@@H](CO)C(=O)N[C@@H](CCCCN)C(=O)N[C@@H](CCCCN)C(=O)N[C@@H](CCCCN)C(=O)N[C@@H](CCCCN)C(=O)O
Non-Toxic: Activity [5] | Activity (BV-2 [24]) | Activity [6]
Active: Activity (BV-2 [7])

CCCCCCCCCCCCCCCC(=O)N[C@@H](CSCCNC(=O)OCCCCCCCCCCCCCC)C(=O)N[C@H](CO)C(=O)N[C@@H](CCCCN)C(=O)N[C@@H](CCCCN)C(=O)N[C@@H](CCCCN)C(=O)N[C@@H](CCCCN)C(=O)O
active: Activity [12] Dose-dependent effect | Activity (BMDM [3]) | Activity [13] | Activity [15] Dose-dependent effect | Activity [16]
inactive: Activity (BMDM [10]) | Activity [11] | Activity [8] | Activity [17]

CCCCCCCCCCCCCCCC(=O)NCCSC[C@H](NC(=O)CCCCCCCCCCCCCCC)C(=O)N[C@H](CO)C(=O)N[C@@H](CCCCN)C(=O)N[C@@H](CCCCN)C(=O)N[C@@H](CCCCN)C(=O)N[C@@H](CCCCN)C(=O)O
inactive: Activity (BMDM [3]) | Activity [8]

CCCCCCCCCCCCCCCCOC(=O)NCCSC[C@H](NC(=O)CCCCCCCCCCCCCCC)C(=O)N[C@@H](CO)C(=O)N[C@@H](CCCCN)C(=O)N[C@@H](CCCCN)C(=O)N[C@@H](CCCCN)C(=O)O
Non-Toxic: Activity (BV-2 [24])
